Test systems include A498 renal; DU-145 prostate; HT29 colon; IGROV1 ovarian; RXF 393 renal; SK-MEL-2 melanoma; SK-MEL-5 melanoma; SN12C renal; SNB-19 CNS; U251 CNS.
Holding throughout (assay): DTP human tumour cell line panel, 48 h

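Interpolation was linear, between the two tested concentrations surrounding the appropriate level; five concentrations were tested over 48 hours in 96-well plates. The concentration for 50% growth inhibition is given as GI50. TGI: total growth inhibition.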

Usually GI50 stands for the concentration giving 50% growth inhibition. The term TGI denotes the concentration at which net growth stops. Low readings indicate greater sensitivity of the cells, high ones lower sensitivity of the cells. As for `COc1ccc(OC)c(/C=C/C(=O)N/N=C/c2ccc(Cl)cc2)c1`, the GI50 is 0.111 µM in the assay on A498 renal; 0.18 µM with DU-145 prostate; 0.0388 µM in the assay on HT29 colon; 0.123 µM with IGROV1 ovarian; 0.0363 µM in the assay with RXF 393 renal; 1.06 µM in the assay on SK-MEL-2 melanoma. Besides, the GI50 is 0.0363 µM in the assay with SK-MEL-5 melanoma, 0.488 µM in the assay on SN12C renal, 0.159 µM in the assay with SNB-19 CNS and 0.184 µM in the assay on U251 CNS. Also, the TGI was 36.6 µM in the assay with A498 renal; > 29 µM in the assay on DU-145 prostate; 4.65 µM in the assay on HT29 colon; > 79.3 µM in the assay on IGROV1 ovarian; 0.268 µM in the assay with RXF 393 renal; > 100 µM in the assay with SK-MEL-2 melanoma. Moreover, the TGI with SK-MEL-5 melanoma is 12.6 µM; in the assay with SN12C renal it was > 100 µM; with SNB-19 CNS, > 100 µM; with U251 CNS, 1.49 µM.
For the compound `CCN(CC)c1sc(N(CC)CC)c2c1SSSSS2`, the GI50 in the assay with A498 renal is 2.03 µM; in the assay with DU-145 prostate, 1.8 µM; in the assay with HT29 colon it was 2.06 µM; with IGROV1 ovarian, 0.715 µM; in the assay with RXF 393 renal, 1.59 µM; in the assay on SK-MEL-2 melanoma it was 3.02 µM. Further, the GI50 in the assay on SK-MEL-5 melanoma was 0.851 µM; with SN12C renal, 0.315 µM; in the assay on SNB-19 CNS, 2.64 µM; with U251 CNS it was 2.76 µM. In addition, the TGI stood at 3.54 µM in the assay with A498 renal; 3.37 µM in the assay with DU-145 prostate; 5.2 µM with HT29 colon; 2.77 µM in the assay on IGROV1 ovarian; 14.6 µM in the assay with SK-MEL-2 melanoma; 1.95 µM with SK-MEL-5 melanoma. In addition, the results for the TGI in the assay on SN12C renal, in the assay with SNB-19 CNS and in the assay with U251 CNS were 0.866 µM, 12.7 µM and 13.2 µM, respectively.
For `COc1cc(OC)c(/C=C/C(=O)c2c(OC)cccc2OC)c(OC)c1`, the GI50 in the assay with A498 renal was 0.308 µM; in the assay with DU-145 prostate, 2.01 µM; with HT29 colon, 0.398 µM; in the assay on IGROV1 ovarian it was 0.497 µM; in the assay with RXF 393 renal, 0.561 µM; in the assay on SK-MEL-2 melanoma, 0.807 µM. Moreover, the GI50 is 0.348 µM in the assay with SK-MEL-5 melanoma, 1.1 µM in the assay with SN12C renal, 0.775 µM in the assay on SNB-19 CNS and 0.592 µM with U251 CNS. Moreover, the TGI in the assay with DU-145 prostate was > 29.3 µM; in the assay on HT29 colon it was > 100 µM; in the assay with RXF 393 renal, 2.17 µM; in the assay with SK-MEL-2 melanoma, > 100 µM; in the assay with SK-MEL-5 melanoma, 2.49 µM; in the assay on SN12C renal it was > 100 µM. For the same compound, the TGI with SNB-19 CNS and in the assay with U251 CNS was > 100 µM each time.
In the case of `CC(=O)OC1CC(O)C23COC(O)C1(C)C2CC(O)C1(C)C3C(=O)C(O)C2(C)C(c3ccoc3)CC3OC321` (stereo not given), the GI50 in the assay with A498 renal is > 100 µM; in the assay on DU-145 prostate it was 0.9 µM; in the assay with HT29 colon, < 0.01 µM; in the assay on IGROV1 ovarian it was 0.377 µM; in the assay with RXF 393 renal, > 100 µM; in the assay with SK-MEL-5 melanoma, < 0.01 µM. The GI50 in the assay on SN12C renal is > 100 µM; with SNB-19 CNS it was > 100 µM; in the assay on U251 CNS it was 0.379 µM. Besides, the TGI was > 100 µM in the assay on A498 renal; > 100 µM in the assay on DU-145 prostate; > 33.3 µM with HT29 colon; > 100 µM with IGROV1 ovarian; > 100 µM in the assay on RXF 393 renal; > 100 µM with SK-MEL-2 melanoma. The TGI in the assay on SN12C renal, with SNB-19 CNS and in the assay with U251 CNS was > 100 µM in each case.
For the compound `CN(C)c1ccc(N)cc1`, the GI50 with A498 renal is 7.02 µM; with DU-145 prostate it was 6.05 µM; in the assay on HT29 colon, 3.04 µM; in the assay with IGROV1 ovarian it was 4.04 µM; in the assay with RXF 393 renal, 10.4 µM; in the assay with SK-MEL-2 melanoma, 2.55 µM. The GI50 is 3.91 µM with SK-MEL-5 melanoma, 4.35 µM with SN12C renal, 4.35 µM in the assay on SNB-19 CNS and 3.36 µM in the assay with U251 CNS. Further, the TGI with A498 renal came out at 50.7 µM; in the assay on DU-145 prostate it was 48.1 µM; with HT29 colon, 10.8 µM; in the assay with IGROV1 ovarian, 23.8 µM; with RXF 393 renal, 26 µM; in the assay with SK-MEL-2 melanoma it was 7.84 µM. Moreover, the TGI was 13.7 µM in the assay on SK-MEL-5 melanoma, 33.9 µM in the assay on SN12C renal, > 100 µM with SNB-19 CNS and 13.2 µM with U251 CNS.
For `CCN(CC)CCCC(C)Nc1c(C)cnc2cc(Cl)c(C)cc12` (stereo not given), the GI50 in the assay on A498 renal is 16.6 µM; in the assay on DU-145 prostate it was 12.8 µM; with HT29 colon, 2.72 µM; with IGROV1 ovarian it was 25.9 µM; in the assay with RXF 393 renal, 8.75 µM; with SK-MEL-2 melanoma, 20.4 µM. The GI50 is 3.92 µM in the assay with SK-MEL-5 melanoma, 11.2 µM with SN12C renal, 17.7 µM in the assay on SNB-19 CNS and 12 µM in the assay on U251 CNS. In addition, the total growth inhibition concentration (TGI) was 31.4 µM with A498 renal; 27.8 µM in the assay with DU-145 prostate; > 24.8 µM in the assay with HT29 colon; 74.7 µM with IGROV1 ovarian; 26.6 µM in the assay with RXF 393 renal; > 70.6 µM with SK-MEL-2 melanoma. The TGI was 13.3 µM with SK-MEL-5 melanoma, 43.9 µM in the assay on SN12C renal, 50.6 µM in the assay with SNB-19 CNS and > 100 µM with U251 CNS.
Regarding `CN/N=C(/CCN1CCCC1)CC(c1ccccc1)c1c(O)c2ccccc2oc1=O` (stereo not given), the TGI in the assay on A498 renal, in the assay on DU-145 prostate, in the assay on HT29 colon, in the assay on IGROV1 ovarian, in the assay on RXF 393 renal and with SK-MEL-2 melanoma was > 100 µM in each case. Moreover, the TGI with SK-MEL-5 melanoma, with SN12C renal, in the assay on SNB-19 CNS and with U251 CNS was > 100 µM in each case.
With `COc1cc(C2=NN(C(C)=O)C(c3ccc(OC(C)=O)cc3OC(C)=O)O2)c(OC(C)=O)c2ccccc12` (stereo not given), the GI50 was 1.59 µM with A498 renal; 0.683 µM with DU-145 prostate; 4.48 µM in the assay with HT29 colon; 0.82 µM in the assay on IGROV1 ovarian; 1 µM in the assay on RXF 393 renal; 10.8 µM with SK-MEL-2 melanoma. For the same compound, the GI50 in the assay with SK-MEL-5 melanoma was 0.984 µM; in the assay on SN12C renal, 0.864 µM; with SNB-19 CNS, 1.19 µM; in the assay with U251 CNS, 0.472 µM. Besides, the TGI in the assay with A498 renal was 11.6 µM; with DU-145 prostate, > 100 µM; with HT29 colon, 41.3 µM; in the assay on IGROV1 ovarian, 42.6 µM; in the assay with RXF 393 renal, 12.5 µM; in the assay with SK-MEL-2 melanoma, 49.4 µM. The TGI is 7.54 µM with SK-MEL-5 melanoma, > 43.8 µM in the assay on SN12C renal, > 75.3 µM in the assay on SNB-19 CNS and 14.8 µM in the assay on U251 CNS.

(Values after PubChem BioAssay (NCI).)
